{
  "source": "patent US11266675B2",
  "about": "“Methods of treatment of viral infection and uses of anti-HSC70 inhibitors” (priority 2018, dated 2022)",
  "key": {"EV-A71 [1]": {"system": "EV-A71", "assay": "Extracellular viral RNA / virus yield in supernatant by qRT-PCR", "type": "cell-based, Enterovirus A71 (SHZH98 strain)", "conditions": "RD cells; for Virus yield in the supernatants vs scrambled control: siRNA 48 hours, EV-A71 MOI of 10, nine hours p.i.", "protocol": "(§1) Total RNA was extracted from cell lysis using TRIzol reagent (Ambion, Life Technologies). Quantitative Real-time PCR (qRT-PCR) was performed using SYBR Green Mix (Life Technologies) on applied Biosystems StepOne real-time PCR system. The comparative ΔΔCt method was used to calculate the relative expression of microRNA or mRNA normalized to β-actin mRNA.\n(§2) The mRNA level of Hsc70 was detected by qRT-PCR and the protein level was detected by western blotting. […] The extracellular virus levels were detected by qRT-PCR. […] The viral titer in the supernatant was determined by TCID50 assay.\nTo address the drug target potential of Hsc70 against EV-A71, experiments were conducted to examine if Ver-155008, a chemical inhibitor of Hsc70, could protect cells from EV-A71 infection. In this regard, RD cells were pre-treated for 2 hours with Ver-155008, then infected the cells with EV-A71 for another 9 hours at an MOI of 10.\nIn FIG. 5A, cell images under light microscope. In FIG. 5B, proteins levels of VP0/2 by western blot are shown. In FIG. 5C, EV-A71 IRES activity detected by luciferase activities are shown. (n=3; ***, p<0.001). In FIG. 5D, there is shown the extracellular viral RNA levels were examined by qRT-PCR."}, "EV-A71 viral protein VP1": {"system": "EV-A71 viral protein VP1", "assay": "Western blot of viral protein in infected RD cells", "type": "cell-based, Enterovirus A71 (SHZH98 strain)", "protocol": "(§3) Total protein was extracted from cell lysis in RIPA buffer with protease inhibitor and phosphatase Inhibitor (Roche). A total of 10-30 μg protein was loaded for SDS-PAGE and transferred onto PVDF membranes. Membranes were blocked with 5% non-fat milk in Tris-buffered saline buffer with 0.1% Tween-20 (TBST) for 1 hour at room temperature and incubated with primary antibodies overnight at 4° C. After washing with TBST three times, the membranes were incubated with the corresponding horseradish peroxidase (HRP)-conjugated secondary antibodies for 1 hour at room temperature. The Hsc70 protein level was detected using an Hsc70-specific antibody (sc-13132, Santa Cruz Biotechnology, USA). The band density was quantified using Quantity One software (Bio-Rad). GADPH served as loading control. The western blotting was carried out in three times for confirmation of results.\nThe mRNA level of Hsc70 was detected by qRT-PCR and the protein level was detected by western blotting. […] The extracellular virus levels were detected by qRT-PCR. […] The viral titer in the supernatant was determined by TCID50 assay. […]\n(§4) In FIG. 5A, cell images under light microscope. […] In FIG. 5C, EV-A71 IRES activity detected by luciferase activities are shown. […]"}, "EV-A71 [2]": {"system": "EV-A71", "assay": "Viral titer in supernatant by TCID50 assay", "type": "cell-based, Enterovirus A71 (SHZH98 strain)", "conditions": "RD cells, siRNA 48 hours, EV-A71 9 hours, culture media", "protocol": "(§5) Human rhabdomyosarcoma (RD) cells were purchased from ATCC (CCL-136). The Dulbecco's modified Eagle's medium (DMEM) with 10% fetal bovine serum (FBS) were used for cell culture, supplemented with 100 U/ml penicillin and 100 μg/ml streptomycin Propagation of EV-A71 (SHZH98 strain, accession number AF302996) was the same as previous report. The viral titer was measured by TCID50 assays.\nas §2"}, "EV-A71 [3]": {"system": "EV-A71", "assay": "Intracellular viral RNA (positive and negative strand) by qRT-PCR", "type": "cell-based, Enterovirus A71 (SHZH98 strain)", "conditions": "RD cells", "protocol": "as §1, §2"}, "EV-A71 [4]": {"system": "EV-A71", "assay": "2Apro-regulated viral protein production in HEK 293T cells, western blot (VP0/2 antibody)", "type": "cell-based, Enterovirus A71 (SHZH98 strain)", "conditions": "si-Hsc70 then 2Apro expression plasmid, EV-A71 MOI of 5 for 9 hours", "protocol": "as §3\nIn FIG. 4A, HEK 293T cells were co-transfected with pHsc70, pIRES reporter plasmid and 2A^pro-expressing plasmid or empty vector for forty-eight hours, then the reporter activity was measured. In FIG. 4B, HEK 293T cell extract was incubated with the His-tagged 2A^pro, pulled down and then analyzed by western blotting. […] The cleavage products were assessed by immunoblotting. […] The viral protein production was detected by western blotting by using VP0/2 antibody (n=3)."}, "EV-A71 [5]": {"system": "EV-A71", "assay": "Cytopathic effect (CPE) assay", "type": "cell-based, Enterovirus A71 (SHZH98 strain)", "protocol": "as §5\nCPE assay was used to test the antiviral effect of Ver-155008. Ver-155008 was from Selleckchem (Cat. No. S7751). RD cells were seed in 96-well plate at 37° C. overnight, was then treated with indicated concentration of Ver-155008. […] CPE was monitored and recorded from time to time under a phase-contrast microscope. The concentration required to reduce the EV-A71-induced CPE by 50% (IC50) was determined by using the nonlinear regression analysis of SPSS 17.0. Data were shown as mean values with standard deviations from three independent assays. Selectivity index (SI) is calculated by the ratio of CC50 to IC50."}, "EV-A71 IRES": {"system": "EV-A71 IRES", "assay": "Dual-luciferase IRES reporter assay", "type": "cell-based", "conditions": "Ver-155008 treatment", "text": "Human Hsc70 (Accession NM_006597) was purchased from Addgene (Cat. No. 19541). The EV-A71 report plasmid pIRES was constructed as previously described. In detail, the EV-A71 reportor plasmid pIRES was constructed as follows: Renilla Luciferase gene (RLuc) was inserted into pcDNA4/HisMax B between BamHI and EcoRV sites; EV-A71 IRES was amplified from EV-A71 virus strain (SHZH98). Firefly Luciferase gene (FLuc) was amplified by using primer which has overlap sequence with the C-terminal of EV-A71 IRES. Finally, the construct IRES-FLuc were then amplified by using overlap PCR, and inserted into the downstream of the Renilla Luciferase gene between EcoRV and XbarI sites. […]\nHEK 293T cells were seeded into a 24-well plate and incubated at 37° C. overnight and then transfected with Hsc70 expression plasmid (pHsc70) or siRNA. […] The activity of RLuc and FLuc were assessed by bioluminometer using a dual-luciferase reporter assay (Promega) according to the manufacturer.\nFIG. 3A is concerned with 293T cells were co-transfected with si-Hsc70 and IRES reporter plasmid for forty-eight hours. […] Proteins which interact with the RNAs were detected by immunoblotting with specific antibody. […]\nas §4"}, "RD cells": {"system": "RD cells", "assay": "Cell viability assay (MTT)", "type": "cell-based, Human", "conditions": "serial dilution of Ver-155008 for 24 hours", "protocol": "RD cells were seeded in 96-well plates (5,000 cells/well) and treated with serial dilution of Ver-155008 for 24 hours for cell viability assay. Ten μL of MTT was added to cultured cells in 100 μl culture medium and incubated at 37° C. for 4 h. Subsequently 100 μl of Dimethyl Sulfoxide were added. The optical density was measured at a wavelength of 570 nm. The cell viability assay was carried out in triplicates by three independent experiments as previously described."}},
  "data": [
    {"compound": "5′-CCUAAAUUCGUAGCAAAUU-3′ (SEQ ID NO: 2) (other siRNA strand not cited, further chemistry not given here) [si-Hsc70-2, small interfering RNA targeting human Hsc70 (NM_006597), synthesized from Genepharma]", "values": [
      {"measurement": "Virus yield in the supernatants vs scrambled control", "setting": "EV-A71 [1]", "result": "obviously decreased"}
    ]},
    {"compound": "5′-UAAUUCUAAGUACAUUGAGACCAGC-3′ (SEQ ID NO: 1) (other siRNA strand not cited, further chemistry not given here) [si-Hsc70-1, small interfering RNA targeting human Hsc70 (NM_006597), synthesized from Genepharma]", "values": [
      {"measurement": "EV-A71 viral protein VP1 (western blot) vs control cells", "setting": "EV-A71 viral protein VP1; RD cells with Hsc70 knockdown, EV-A71 MOI of 10", "result": "significantly decreased"},
      {"measurement": "Decrease of virus titer vs scramble siRNA control (TCID50)", "setting": "EV-A71 [2]", "result": "more than 10 times"},
      {"measurement": "Virus yield in the supernatants vs scrambled control", "setting": "EV-A71 [1]", "result": "obviously decreased"},
      {"measurement": "Decrease of negative strand viral RNA level", "setting": "EV-A71 [3]; EV-A71 MOI of 10, 3 hours p.i.", "result": "about 86%"},
      {"measurement": "Decrease of positive strand viral RNA level", "setting": "EV-A71 [3]; EV-A71 MOI of 10, 3 hours p.i.", "result": "about 86%"},
      {"measurement": "Decrease of negative strand viral RNA level", "setting": "EV-A71 [3]; EV-A71 MOI of 10, 6 hours p.i.", "result": "about 70%"},
      {"measurement": "Decrease of positive strand viral RNA level", "setting": "EV-A71 [3]; EV-A71 MOI of 10, 6 hours p.i.", "result": "about 70%"},
      {"measurement": "Decrease of negative strand viral RNA level", "setting": "EV-A71 [3]; EV-A71 MOI of 10, 9 hours p.i.", "result": "about 70%"},
      {"measurement": "Decrease of positive strand viral RNA level", "setting": "EV-A71 [3]; EV-A71 MOI of 10, 9 hours p.i.", "result": "about 70%"},
      {"measurement": "Inhibitory effect on viral RNA levels", "setting": "EV-A71 [3]; EV-A71 MOI of 10, 12 hours p.i.", "result": "still significant"},
      {"measurement": "2Apro-elicited production of viral protein after knockdown of Hsc70", "setting": "EV-A71 [4]", "result": "failed to elicit the production of viral protein"}
    ]},
    {"compound": "N#Cc1ccc(COC[C@H]2O[C@@H](n3c(NCc4ccc(Cl)c(Cl)c4)nc4c(N)ncnc43)[C@H](O)[C@@H]2O)cc1", "note": "[Ver-155008]", "values": [
      {"measurement": "IC50", "setting": "EV-A71 [5]; RD cells infected with EV-A71 at MOI of 0.01, read-out: Antiviral activity IC50 (concentration reducing EV-A71-induced CPE by 50%)", "result": 2010, "unit": "nM"},
      {"measurement": "Cytopathic effect (CPE)", "setting": "EV-A71 [5]; RD cells, 8 μM, 2 h pre-treatment, EV-A71 MOI of 10 for 9 hours", "result": "nearly no obvious cytopathic effect"},
      {"measurement": "Selective Index SI (CC50/IC50)", "setting": "EV-A71 [5]; RD cells, EV-A71", "result": 23.71},
      {"measurement": "Viral VP1 levels (western blot)", "setting": "EV-A71 viral protein VP1; RD cells pre-treated 2 hours with Ver-155008, EV-A71 MOI of 10, 9 hours", "result": "obviously repressed by Ver-155008 in a dose dependent manner"},
      {"measurement": "Decrease of secreted virions (extracellular viral RNA, qRT-PCR)", "setting": "EV-A71 [1]; 8 μM, EV-A71 MOI of 10, 9 hours", "result": 55, "unit": "%"},
      {"measurement": "EV-A71 IRES activity (luciferase)", "setting": "EV-A71 IRES", "result": "declined in a dose-dependent manner"},
      {"measurement": "CC50", "setting": "RD cells; read-out: Cytotoxity CC50", "result": 47.7, "unit": "µM"},
      {"measurement": "CC90", "setting": "RD cells; read-out: Cytotoxity CC90", "result": "91.9 ± 0.94", "unit": "µM"}
    ]}
  ]
}
